Laboratory results taken from patent publication US12616203B2, “Use of 3-isoxazolidinones compounds as selective herbicides” (FMC Corporation, priority 2014, dated 2026).

Columns and labels:
Black nightshade = assay: Ex15 PRE 2,4-DC + S-metolachlor, % control 28 DAT, Colby; assay type: in vivo, Solanum nigrum
Text: The weeds tested in this study were redroot pigweed (Amaranthus retroflexus, AMARE), Jimsonweed (Datura stramonium, DATST), black nightshade (Solanum nigrum, SOLNI), large crabgrass (Digitaria sanguinalis, DIGSA), Pennsylvania smartweed (Polygonum pensylvanicum, POLPY), horseweed (Conyza canadensis, ERICA), wild buckwheat (Polygonum convolvulus, POLCO). The crop tested was Corn (var. Viking).
To determine PRE efficacy and corn injury, five rates of each 2,4 DC (36.7% CS) and S-metolachlor (Dual II Magnum®, 82.4%) were applied either alone or as tank-mix. 2,4 DC was applied at 0, 125, 170, 210, or 250 g ai/ha and S-metolachlor was applied at 0, 267, 534, 801, or 1070 g ai/ha. Additional treatments included application of premix of pyroxasulfone plus fluthiacet-methyl (Anthem™ 23.3%) at 169.9 g ai/ha and tank-mix of mesotrione (Callisto®, 40%) at 123 g plus S-metolachlor at 1252 g. Treatments were applied just after the planting of large crabgrass, Jimsonweed, black nightshade, redroot pigweed, Pennsylvania smartweed, horseweed, wild buckwheat, and corn.
Flats were watered and fertilized routinely after treatment application. Each treatment was replicated three times. […] Corn injury was rated for bleaching and stunting.

Barley = assay: Ex40 POST 2,4-DC + metsulfuron-methyl, crop injury 7 DAT; assay type: in vivo
Experimental: (§1) Treatments were applied to barley and wheat crops.
(§2) Non-ionic surfactant (NIS) was added to all treatments at 0.5% v/v. All plant species were direct seeded into 3″ plastic pots using metro-mix as growth media. At treatment common lambsquarters was 1.75″, common chickweed was 2″, wild mustard was 2.25″, wild oat was 5.5″, wild buckwheat was 2-5″, Italian ryegrass was 2-3″, wheat was 5.5″ and barley was 4.5″ in height. Plants were watered well before application and not watered 24 h after application. Plants were watered and fertilized routinely after treatment application. Each treatment was replicated four times. Treated flats were placed in randomized block design in the greenhouse.

wheat = assay: as above; assay type: in vivo
Experimental: as §1, §2

weeds [1] = assay: Ex18 PRE greenhouse; assay type: in vivo; conditions: weed and rate in the words
weeds [2] = assay: Ex20 PRE greenhouse; assay type: in vivo; conditions: weed and rate in the words
Text: Herbicides: • 2,4 DC-21 (36.7% CS): 125, 170, 210, or 250 g ai/ha alone and as tank-mix with dimethenamid-P • Dimethanamid-P (Outlook, 63.9%): 250, 375, 500 g ai/ha in combination with 2,4 DC and alone, additional treatment alone at 750 g ai/ha. • Metazachlor (Butisan 43.1%): 500 g ai/ha
Herbicides included as standards for comparison were metazachlor plus dimethenamid-P (500 g) as tank mix combination. […] Treatments were replicated 3 times. […] Thereafter flats were watered and fertilized routinely.

weeds [3] = assay: Ex21 PRE greenhouse; assay type: in vivo; conditions: 28 DAT, weed and rate in the words
Text: 2,4 DC (36.7% CS) was applied PRE at 0, 125, 170, 210, or 250 g ai/ha alone or as a tank-mix with S-metolachlor (Dual II Magnum®, 82.4%) at 0, 267, 534, 801, or 1070 g ai/ha. Pyroxasulfone plus fluthiacet-methyl (Anthem™, 23.3%) applied at 169.9 g ai/ha, and the tank-mix of mesotrione (Callisto®, 40%) at 123 g plus S-metolachlor (Dual II Magnum®, 82.4%) at 1252 g were included as standards for comparison. […] Thereafter flats were watered and fertilized routinely. Each treatment was replicated three times.

weeds; Sugarcane (CTC20) = assay: Ex23 PRE greenhouse; conditions: 28 DAT, weed and rate in the words

CC1(C)CON(Cc2ccc(Cl)cc2Cl)C1=O [2,4-DC, 2-(2,4-dichlorophenyl)methyl-4,4-dimethyl-3-isoxazolidinone]
X (Black nightshade; 2,4-DC alone 125 g ai/ha): 32% | X (Black nightshade; 2,4-DC alone 170 g ai/ha): 33% | X (Black nightshade; 2,4-DC alone 210 g ai/ha): 47% | X (Black nightshade; 2,4-DC alone 250 g ai/ha): 50% | X (% crop injury, 2,4-DC alone) (Barley; POST, 2,4-DC 125 g ai/ha): 4% | X (% crop injury, 2,4-DC alone) (Barley; POST, 2,4-DC 170 g ai/ha): 6% | X (% crop injury, 2,4-DC alone) (Barley; POST, 2,4-DC 210 g ai/ha): 8% | X (% crop injury, 2,4-DC alone) (Barley; POST, 2,4-DC 250 g ai/ha): 14% | X (% crop injury, 2,4-DC alone) (wheat; POST, 2,4-DC 125 g ai/ha): 5% | X (% crop injury, 2,4-DC alone) (wheat; POST, 2,4-DC 170 g ai/ha): 14% | X (% crop injury, 2,4-DC alone) (wheat; POST, 2,4-DC 210 g ai/ha): 17% | X (% crop injury, 2,4-DC alone) (wheat; POST, 2,4-DC 250 g ai/ha): 31% | weed control in words (weeds [1]): controlled goosegrass at ≥170 g ai/ha | weed control in words (weeds [2]): applied alone at 125 g ai/ha controlled (≥85% injury) Canada thistle, giant foxtail, goosegrass, and common chickweed | weed control in words (weeds [3]): applied alone controlled (≥85% injury) common chickweed at all rates, bamyardgrass at ≥210 g ai/ha, and green foxtail at 250 g | weed control in words (weeds; Sugarcane (CTC20)): applied alone at ≥500 g ai/ha controlled (≥85% injury) large crabgrass and redroot pigweed
